Laboratory results from patent EP4335840A1, “NEW CONTRAST AGENTS FOR USE IN DIAGNOSTIC IMAGING” (priority 2022, dated 2024).

Key:
[1] = Relaxivity measurements at 1.41 T in water and human plasma; format: physicochemical; settings: 37°C, normalized to Gd
Protocol: Relaxivity measurements at 1.41 T were performed using a MiniSpec mq60 spectrometer (Bruker Analytik, Karlsruhe, Germany) operating at a resonance frequency of 60 MHz and a temperature of 37°C. The T1 relaxation times were determined using the standard inversion recovery (IR) method with a fixed relaxation delay of at least 5 × T1. The variable inversion time (TI) was calculated automatically by the standard software of the MiniSpec mq60 (8 steps). The T2 measurements were performed by using a Carr-Purcell-Meiboom-Gill (CPMG) pulse sequence, applying a relaxation delay of at least 5 × T1.
Each relaxivity measurement was performed using three different Gd concentrations (3 concentrations between 0.05 and 2 mM). The T1 and T2 relaxation times of the example compounds 1 to 10 were measured in different media for example in water and human plasma. Human plasma preparation: For each experiment fresh blood was taken from a volunteer using 10 mL citrate-tubes (Sarstedt S-Monovette 02.1067.001, 10 mL, Citrate). The 10 mL citrate-tubes were carefully inverted 10 times to mix blood and anticoagulant and centrifuged for 15min at 1811 g at RT (Eppendorf, Centrifuge 5810R).
The relaxivities ri (where i=1, 2) were calculated based on the measured relaxation rates Ri in water and plasma: ri = (Ri−Ri(0))/CGd [formula] where Ri(0) represent the relaxation rate of the respective solvent and CGd the concentration of the compound normalized to the Gadolinium. The Gadolinium concentrations of the investigated solutions were verified by Inductively Coupled Plasma Mass Spectrometry (ICP-MS Agilent 7500a, Waldbronn, Germany). Table 3: Relaxivities of investigated compounds in water and human plasma at 1.41 T and relaxivities of Reference compounds 1-3 (RC1-RC3) at 1.5 T in water and bovine plasma. All values are measured at 37°C and normalized to Gd and given in L mmol-1 s-1.

[2] = biological target: T1, OATP1B3 (Homo sapiens, UniProt Q9NPD5); test: Uptake into stable transfected OATP1B3 HEK 293 cells; format: cell-based; settings: OATP1B3-HEK 293 cell uptake with Rifampicine
T1 sequence (Q9NPD5 1-702): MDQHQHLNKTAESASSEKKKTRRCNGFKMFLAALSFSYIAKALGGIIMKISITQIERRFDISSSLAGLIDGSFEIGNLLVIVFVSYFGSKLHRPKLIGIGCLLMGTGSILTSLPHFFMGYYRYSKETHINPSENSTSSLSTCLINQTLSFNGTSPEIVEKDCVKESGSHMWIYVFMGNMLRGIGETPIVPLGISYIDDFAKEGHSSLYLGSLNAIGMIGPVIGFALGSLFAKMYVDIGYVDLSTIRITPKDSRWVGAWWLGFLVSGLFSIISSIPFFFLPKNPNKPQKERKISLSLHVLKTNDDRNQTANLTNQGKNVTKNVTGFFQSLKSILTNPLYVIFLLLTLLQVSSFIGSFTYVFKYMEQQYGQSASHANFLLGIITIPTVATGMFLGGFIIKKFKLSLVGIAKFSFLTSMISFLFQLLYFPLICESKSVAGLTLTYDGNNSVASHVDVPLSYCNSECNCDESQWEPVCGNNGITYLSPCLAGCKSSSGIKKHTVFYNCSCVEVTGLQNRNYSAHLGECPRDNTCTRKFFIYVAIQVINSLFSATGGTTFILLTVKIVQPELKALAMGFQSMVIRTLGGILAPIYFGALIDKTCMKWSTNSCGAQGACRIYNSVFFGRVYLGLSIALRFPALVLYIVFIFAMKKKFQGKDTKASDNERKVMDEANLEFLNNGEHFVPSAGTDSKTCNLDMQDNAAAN

[3] = biological target: T2, OATP1B1 (Homo sapiens, UniProt Q9Y6L6); test: Uptake into stable transfected OATP1B1 HEK 293 cells; format: cell-based; settings: OATP1B1-HEK 293 cell uptake with Rifampicine
T2 sequence (Q9Y6L6 1-691): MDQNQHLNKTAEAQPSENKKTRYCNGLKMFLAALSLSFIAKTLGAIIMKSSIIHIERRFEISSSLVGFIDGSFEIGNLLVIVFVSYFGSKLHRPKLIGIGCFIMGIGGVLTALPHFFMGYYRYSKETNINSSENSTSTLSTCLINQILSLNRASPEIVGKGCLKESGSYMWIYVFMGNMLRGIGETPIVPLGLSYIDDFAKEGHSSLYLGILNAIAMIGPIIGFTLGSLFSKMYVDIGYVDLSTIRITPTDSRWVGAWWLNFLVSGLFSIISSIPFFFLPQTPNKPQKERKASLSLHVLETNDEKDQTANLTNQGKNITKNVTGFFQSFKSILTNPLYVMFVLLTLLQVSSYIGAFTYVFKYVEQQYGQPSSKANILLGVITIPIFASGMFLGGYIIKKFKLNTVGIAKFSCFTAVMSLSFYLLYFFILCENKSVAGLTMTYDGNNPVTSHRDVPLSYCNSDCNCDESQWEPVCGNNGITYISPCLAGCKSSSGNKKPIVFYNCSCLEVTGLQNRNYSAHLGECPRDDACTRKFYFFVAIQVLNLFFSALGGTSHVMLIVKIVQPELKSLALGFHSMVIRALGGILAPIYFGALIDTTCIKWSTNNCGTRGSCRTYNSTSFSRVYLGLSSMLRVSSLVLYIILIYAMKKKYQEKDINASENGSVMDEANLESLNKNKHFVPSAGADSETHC

Row | Substance | r1 human plasma [1] [L/mmol/s] | r1 water [1] [L/mmol/s] | Inhibition Rifampicine [2] [% inhibition] | Inhibition Rifampicine [3] [% inhibition]
1 | Gadolinium-2,2',2"-[10-(carboxymethyl)-2-(4-ethoxybenzyl)-1,4,7,10-tetraazacyclododecane-1,4,7-triyl]triacetate [Example 8] | 6.5 | 4.7 | 99 | 75
2 | Gadolinium-2,2',2"-[10-(carboxymethyl)-2-(4-ethoxybenzyl)-1,4,7,10-tetraazacyclododecane-1,4,7-triyl]triacetate [Example 9] | 5.6 | 4.3 | 94 | 23
3 | Gadolinium-2,2',2"-[(2S)-2-(4-butoxybenzyl)-10-(carboxymethyl)-1,4,7,10-tetraaza cyclododecane-1,4,7-triyl]triacetate [Example 12] | 8.8 | 4.7 | 98 | 81
4 | Gadolinium-2,2',2"-[(2S)-2-(4-butoxybenzyl)-10-(carboxymethyl)-1,4,7,10-tetraaza cyclododecane-1,4,7-triyl]triacetate [Example 13] | 9.8 | 5.3 | 98 | 88
5 | Gadolinium-2,2',2"-[(2S)-10-(carboxymethyl)-2-(4-ethoxybenzyl)-1,4,7,10-tetraazacyclododecane-1,4,7-triyl]triacetate [Example 10] | 6.4 | 4.8 | 96 | 73
6 | Gadolinium-2,2',2"-[(2S)-10-(carboxymethyl)-2-(4-ethoxybenzyl)-1,4,7,10-tetraazacyclododecane-1,4,7-triyl]triacetate [Example 11] | 6.2 | 4.4 | 90 | 64
